In patent US10633707B2, “Markers for detecting microsatellite instability in cancer and determining synthetic lethality with inhibition of the DNA base excision repair pathway” (VIB VZW, priority 2012, dated 2020):
“Also recorded” adds a separate entry of the source.

Experiments:
[1] = system: MMR-deficient primary tumor cultures and cancer cell lines; assay: RAD51 immunostaining (RAD51 foci formation) after olaparib, MMR-deficient cells; format: cell-based, human; details: 10 μM olaparib, 24 hours, average of 8 MMR-deficient cultures
Method: (§1) To investigate whether the DSB repair by HR pathway is functionally inactivated in MMR-deficient tumors, it was assessed the DSB repair activity in eight MMR-deficient and four MMR-proficient primary tumor cultures and cancer cell lines. The MMR status of these cells was analyzed using the 56-marker panel and confirmed by the Bethesda Panel.
(§2) Nine primary endometrial and ovarian tumor cell cultures were established from patients undergoing surgery at the Division of Gynecologic Oncology, University Hospitals Gasthuisberg, Leuven (Belgium). Only after providing informed consent, patients were included in the study. The following protocol was used to generate primary tumor cultures. First, tumor samples were placed into sterile RPMI medium supplemented with Penicillin/Streptomycin (1000 U/ml) and Fungizone (0.5 μg/ml) (all from Life Technologies) for transport from the surgery room to the cell culture laboratory. […]
(§3) Primary tumor cell cultures were grown in RPMI Medium 1640 (Gibco) supplemented with 20% fetal bovine serum, 2 mM L-Glutamine, 100 U/ml of penicillin, 100 μg/ml of streptomycin, 1 μg/ml of fungizone and 10 μg/ml of gentamicin up to 20 passages. […] They were also routinely monitored for Mycoplasma contamination and no Mycoplasma growth has been detected. […]

[2] = system: MMR-proficient primary tumor cultures and cancer cell lines; assay: RAD51 immunostaining (RAD51 foci formation) after olaparib, MMR-proficient cells; format: cell-based, human; details: 10 μM olaparib, 24 hours, average of 4 MMR-proficient cultures
Method: as §1, §2, §3

[3] = system: MMR-deficient and MMR-proficient tumor cells; assay: γH2AX immunostaining (unrepaired DNA damage) after olaparib; format: cell-based, human; details: all cells regardless of MMR status
Method: Primary tumor cultures and immunofluorescence: Nine primary endometrial and ovarian tumor cell cultures were established from tumors of the patients undergoing surgery. Primary tumor cell cultures were grown in RPMI1640 medium (GIBCO) supplemented with 20% FBS, 2 mM L-Glutamine, 100 U/ml penicillin, 100 μg/ml streptomycin, 1 μg/ml fungizone and 10 μg/ml gentamicin up to 20 passages. 25,000 cells/well were seeded on eight-well slides (Nunc) in 400 μl medium and grown for 24 hours. Following exposure to 0 or 10 μM olaparib, slides were rinsed in PBS, fixed in paraformaldehyde at 37° C., permeabilized with 0.1% Triton X-100 and blocked with BSA. […] The percentage of foci positive cells (>5 foci per nucleus) was determined on a Zeiss LSM 510 inverted confocal microscope using Plan-Neofluar 40×/1.3 oil immersion objective. For each experiment, at least 100 nuclei were analyzed.
The degree of unrepaired DNA damage upon olaparib treatment was measured with γH2AX immunofluorescence. […]
γH2AX and RAD51 foci were visualized with Zeiss LSM 510 inverted confocal microscope using Plan-Neofluar 40x/1.3 oil immersion objective and excitation wavelengths of 488 and 750 nm (Chameleon coherent two-photon laser). […] Nuclei with >5 foci were scored positive, and at least 100 nuclei were counted per culture and per condition.

[4] = system: MMR-deficient cells; assay: Cell proliferation with xCELLigence RTCA system, MMR-deficient cells; format: cell-based, human; details: for decrease in proliferation versus untreated cells: average of 8 MMR-deficient cultures, 48 hours
Method: (§4) As MMR-deficient tumors are characterized by reduced activity of the DSB repair by HR pathway, it was hypothesized that these tumors, similar to BRCA1-deficient tumors (Farmer et al., 2005), can be selectively targeted by PARP inhibition. All eight MMR-deficient and four MMR-proficient cultures were dose-dependently (1, 3 and 10 μM) exposed to olaparib and effects on proliferation were assessed.
(§5) Real-Time Cell Analyzer (RTCA) xCELLigence System (Roche Applied Science, Mannheim, Germany) was used to dynamically monitor cell proliferation rates. The system measures electrical impedance across microelectrodes on the bottom of tissue culture E-plates. The impedance measurement provides quantitative information about cell number, viability, morphology and adhesion. 5,000 cells/well were seeded on E-plate 16 (Roche) in 200 μl medium. 24 hours post-seeding, cells were treated with olaparib to the desired final concentration (1, 3, 10 μM olaparib). The final DMSO percent in all wells was 0.1%. Each treatment condition was measured in triplicate. Dynamic cell index values were monitored in five-minute intervals for 48 hours after treatments. Cell index values were normalized to the vehicle-treated control for each cell.
Cell Proliferation: Real-Time Cell Analyzer (RTCA) xCELLigence System (Roche) was used to dynamically monitor cell proliferation rates. 5,000 cells/well were seeded on E-plate 16 (Roche) in 200 μl medium. Olaparib (AZD-2281, JS Research Chemicals Trading) was dissolved in DMSO. 24 hours post-seeding, cells were treated with olaparib ([…]). Each condition was measured in triplicate and all experiments were done in duplicate at different time points. Dynamic cell index values were monitored for 48 hours after treatment.

[5] = system: MMR-proficient cells; assay: Cell proliferation with xCELLigence RTCA system, MMR-proficient cells; format: cell-based, human; details: 1, 3 and 10 μM olaparib, 48 hours
Method: as §4
as §5, with “24 hours post-seeding, cells were treated with olaparib to the desired final concentration (1, 3, 10 μM olaparib). The final DMSO percent in all wells was 0.1%.” left out, “Cell index values were normalized to the vehicle-treated control for each cell.” left out
Cell Proliferation: Real-Time Cell Analyzer (RTCA) xCELLigence System (Roche) was used to dynamically monitor cell proliferation rates. […] Each condition was measured in triplicate and all experiments were done in duplicate at different time points. Dynamic cell index values were monitored for 48 hours after treatment.

[6] = system: BRCA1-deficient cells; details: 3 μM olaparib; cited from earlier work
[7] = system: BRCA2-deficient cells; details: 10 μM olaparib; cited from earlier work

O=C(c1cc(Cc2n[nH]c(=O)c3ccccc23)ccc1F)N1CCN(C(=O)C2CC2)CC1 [olaparib]
cells showing RAD51 foci formation (>5 foci per nucleus) [1]: 19±3% | cells showing RAD51 foci formation (>5 foci per nucleus) [2]: 37±4% | increase in number of γH2AX foci compared to baseline ([3]; 10 μM olaparib): 4-6 fold | number of γH2AX foci (in words) ([3]; olaparib): drastically increased | decrease in proliferation versus untreated cells ([4]; 1 μM olaparib): 15% | decrease in proliferation versus untreated cells ([4]; 3 μM olaparib): 20% | decrease in proliferation versus untreated cells ([4]; 10 μM olaparib): 42% | effect on proliferation (in words) ([4]; 1, 3 and 10 μM olaparib, MMR-deficient cells): dose-dependent decrease in proliferation | effect on proliferation (in words) [5]: no effect; also recorded: did not respond to olaparib | decrease in viability [6]: 78% | decrease in viability [7]: 91%
